# Measurements published in patent publication US12083098B2, “Treatment of idiopathic pulmonary fibrosis with glycogen synthase kinase 3 form β inhibitors” (Actuate Therapeutics Inc., priority 2018, dated 2024).
# “Also recorded” adds a separate entry of the source.
# Legend:
# [1] = system: bleomycin-induced pulmonary fibrosis; assay: Bleomycin-induced pulmonary fibrosis model in mice; assay type: in vivo, C57BL/6 mice
# Description: All animal studies were approved by the Institutional Animal Care and Use Committee at the University of Texas Health Science Center at Tyler. C57BL/6 mice (10-12 weeks of age, ≈20 g (from Jackson Laboratory, Bar Harbor ME) were first anesthetized with xylazine/ketamine by intraperitoneal (TP) injection. Lung injury was then initiated in accordance with (Sisson T H et al., Am J Pathol 2015, 185:[…]) with some modifications. Bleomycin sulfate (Teva, 0.8 units/kg) was administered intratracheally via an intratracheal cannula. Animals were monitored daily for sign of respiratory distress, significant weight loss or moribund condition. The control group received normal saline under the same conditions.
# Treatments were begun 14 d after the initiation of injury. For GSK-3β inhibitor studies, treatment with 9-ING-41 (gift from Actuate Therapeutics, Ft. Worth, TX), at 30 mg/kg, or vehicle control dimethylsulfoxide/DMSO in a volume of 40 μl, was administered daily by IP injection for up to 14 d.
# At the completion of the 28 d time course mice were evaluated by flexivent (Tucker T et al., Am J Respir Cell Mol Biol 2019 (doi: 10.1165/rcmb.2018-0121OC. Epub ahead of print); Kamata H et al., Sci Rep 2017, 7:4556; Boren J et al., supra; Tucker T A et al., 2014, supra; Tucker T A et al., Clin Transl Med 5: 17, 2016) for changes in pulmonary function including elastance and compliance. Briefly, mice were anesthetized with a ketamine/xylazine mixture. Anesthetized mice were intubated by inserting a sterile, 20-gauge intravenous cannula through the vocal cords into the trachea and were maintained under anesthesia using isoflurane during pulmonary function testing. Measurements were performed using the flexiVent system (SCIREQ, Tempe AZ). The “snapshot perturbation method” was used to determine lung compliance, according to manufacturer's specifications. At 28 d, mice were euthanized and lungs harvested en bloc. Lung morphometry was determined by trichrome staining of 5 μm lung tissue sections as described in the above cited references. All tissue sections were first de-paraffinized and subjected to antigen retrieval using a citrate buffer at 95° C. for 20 minutes. Tissue analyses, collagen deposition and localization were initially assessed by Trichrome staining. Immunofluorescence was used to visualize α-SMA (MAB1420, R&D), Confocal microscopy was then used to visualize immunofluorescence and co-localization of the markers. Images were acquired from a field of view at 0.4-μm z-axis increments with the LSM 510 Meta confocal system (Carl Zeiss) at 40× as described.
# (§1) All statistical analyses of animal studies was performed using the Mann Whitney U test. (Student's t-test was used for in vitro studies). A p-value of less than 0.05 was considered significant.
# [2] = system: TGF-β adenovirus induced pulmonary fibrosis; assay: TGF-β adenovirus-induced pulmonary fibrosis model in mice; assay type: in vivo
# Description: In a second model, pulmonary fibrosis was initiated by intratracheal instillation of constitutively active TGF-β adenoviral vectors (Ad-TGF-β) bearing C223S/C225S mutations, as reported by Mackinnon A C et al., Am J Respir Crit Care Med 2012, 185:537-46) with some modifications. Briefly, 3×10^8 pfu of Ad-TGF-β or eGFP adenovirus control vector (Ad-eGFP) were administered intratracheally in a volume of 40 μl. Mice were then monitored daily until the completion of the 14 d time-course. For GSK-3β inhibition studies, mice received daily 9-ING-41 treatment 7 d after administration of the adenoviral vectors. At the conclusion of the time-course pulmonary function testing and CT scans were performed as described (Tucker T et al., 2019, supra; Kamata H et al., 2017, supra; Boren J et al., 2017, supra; Tucker T A et al., 2016, supra.
# as §1
# Pulmonary fibrosis was initiated by intratracheal instillation of constitutively active TGF-β adenoviral vectors (Ad-TGF-0) bearing C223S/C225S mutations, as previously reported (Mackinnon A C et al., Am J Respir Crit Care Med 2012, 185:537-46) with some modifications. Briefly, 3×10^8 plaque forming units (pfu) of Ad-TGF-β or eGFP adenovirus control vector (Ad-eGFP) were administered intratracheally in a volume of 40 μl. Mice were then monitored daily until the completion of the 14 d time-course. For GSK-3β inhibition studies, mice received daily 9-ING-41 treatment 7 d after administration of the adenoviral vectors. At the conclusion of the time-course pulmonary function testing and CT scans were performed as described (Tucker T et al., 2019, supra; Kamata H et al., 2017, supra; Boren J et al., 2017, supra; Tucker T A et al., 2016, supra.
compound,measurement,setting,value
Cn1cc(C2=C(c3coc4ccc(F)cc34)C(=O)NC2=O)c2cc3c(cc21)OCO3 [9-ING-41],lung volume (gated CT scan),"[1]; bleomycin 0.8 U/kg intratracheal, 30 mg/kg daily ip from day 14, read at 28 d, vs DMSO vehicle, p=0.026, 30 mg/kg",significantly improved; also recorded: increased lung volume
same,"collagen 1 deposition in lung sections (immunostaining, confocal microscopy 40×)","[1]; bleomycin injured lungs, compared to vehicle (DMSO) treated controls",reduced
same,areas of injury / fibrotic foci in lung sections (Trichrome),"[1]; bleomycin model, 30 mg/kg daily ip, 5 μm sections, n=6, compared to vehicle treated animals",fewer in number and smaller
same,collagen deposition within the fibrotic lesions,"[1]; bleomycin model, 30 mg/kg daily ip, compared to DMSO-treated controls",generally reduced
same,lung compliance (Scireq flexivent),"[1]; bleomycin sulfate 0.8 U/kg intratracheal, 9-ING-41 30 mg/kg daily ip from day 14 for up to 14 d, read at 28 d, vs DMSO vehicle, p=0.04, 30 mg/kg",significantly improved; also recorded: improved lung function
same,"α-SMA expression in lung sections (immunostaining, confocal microscopy 40×)","[1]; marker of myofibroblast differentiation, n=3 mice/treatment, compared to vehicle (DMSO)",reduced
same,lung compliance,"[2]; Ad-TGF-β 3×10^8 pfu intratracheal, 9-ING-41 30 mg/kg daily ip from day 7 for 7 d, read at 14 d, n=6, p<0.05 vs controls, 30 mg/kg",significantly improved; also recorded: improved lung function
same,lung volume,"[2]; TGF-β adenovirus model, at completion of 14 d time course",increased lung volume
same,areas of injury and collagen deposition in lung sections (Trichrome),"[2]; TGF-β adenovirus model, compared to DMSO-treated controls, n=6",reduced areas of injury
